A short description of this data set: Saturation and payload limits for dip coating bupivacaine HCl solution on polyester mesh (FIG. 8). It is filed as physicochemical. To be noted: Parietex monofilament polyester mesh without polymer film. The text has this:
Further, it is believed that spraying films on a medical device (e.g., mesh) compared to other conventional methods, such as dip coating, provides increased loading of the therapeutic agent.
More particularly FIG. 8 illustrates the loading limits for a polyester mesh (Parietex™ monofilament mesh) without a polymer film.

Where a name gives a salt, the structure may show the parent alone.

`CCCCN1CCCCC1C(=O)Nc1c(C)cccc1C` (centres unmarked) [bupivacaine HCl, bupivacaine hydrochloride]: the “saturation and payload limits for dip coating solution” value (solution in MeOH) amounted to 12 % w/v; the “saturation and payload limits for dip coating solution” value (solution in water) was found to be 5 % w/v.

Values taken from patent US9861590B2, “Self-supporting films for delivery of therapeutic agents” (priority 2010, dated 2018).
